In US9173875B2, “Treatment for nicotine-induced lung disease using peroxisome proliferator-activated receptor gamma agonists” (Los Angeles Biomedical Research Institute at Harbor-UCLA …, priority 2006, dated 2015):

Legend:
[1] = test system: WI38 cells; experiment: Reversal experiment, immunofluorescence double staining (ADRP or lipid droplets and αSMA) in WI38 cells; type: cell-based, human; conditions: RGZ 1×10^−5 M, DBcAMP 1×10^−5 M, 7 days after nicotine
Description: Cells were grown in minimum essential medium (MEM) +10% fetal bovine serum at 37° C. in six-well plates, two well slides, and 60-mm and 100-mm culture dishes, as needed. […] Subsequently, the cells were treated with rosiglitazone (RGZ) (1×10^−5 M) (a PPARγ agonist), PTHrP (5×10^−7 M), or DBcAMP (1×10^−5 M) for 7 days, and the expression of PTHrP receptor, PPARγ, ADRP, calponin, and cSMA was determined by Western analysis and immunohistochemistry. Simultaneously, fibroblast function was characterized by measuring their capacity to take up triglycerides. Some experiments were performed in the presence of a specific PPARγ antagonist, GW9662. Medium containing fresh chemicals was added daily, and at the end of the experimental period the cells were processed as needed.
The lipogenic and myogenic status of cultured WI38 cells was assessed by simultaneous staining for either lipid droplets or ADRP and αSMA. Lipids were detected by using either oil red 0 staining or ADRP expression (polyclonal anti-ADRP 1:500), and αSMA expression was assessed by using anti-αSMA (1:1000, mouse monoclonal IgG2a, Sigma, catalog No. A2547) primary antibody. […] At the end of the experimental period, slides were fixed in freshly prepared 4% paraformaldehyde. […] Slides were rinsed three times for 5 min and then mounted and visualized under a fluorescence microscope.

[2] = test system: WI38 cells; experiment: Reversal experiment, triglyceride (triolein) uptake by WI38 cells; type: cell-based, human; conditions: RGZ 10^−5 M, PTHrP 5×10^−7 M, DBcAMP 1×10^−5 M for 7 days after nicotine
[3] = test system: WI38 cells; experiment: Reversal of nicotine-induced LIF-to-MYF transdifferentiation in WI38 cells, Western analysis; conditions: for reversal of nicotine-induced decrease in PTHrP receptor expression: 7 days agonist after 7 days nicotine 10^−9 M (Example 3); for reversal of nicotine-induced decrease in PPARγ expression / reversal of nicotine-induced increase in αSMA expression: 7 days agonist after 7 days nicotine (Example 3); for reversal of nicotine-induced changes in expression of PTHrP receptor, PPARγ, ADRP, αSMA and calponin: RGZ 1×10^−5 M, PTHrP 5×10^−7 M, DBcAMP 1×10^−5 M for 7 days after 7 days nicotine
Description: The human embryonic cell line WI38 was obtained from the American Type Culture Collection (Rockville, Md.). Cells were grown in minimum essential medium (MEM) +10% fetal bovine serum at 37° C. in six-well plates, two well slides, and 60-mm and 100-mm culture dishes, as needed. […] Subsequently, the cells were treated with rosiglitazone (RGZ) (1×10^−5 M) (a PPARγ agonist), PTHrP (5×10^−7 M), or DBcAMP (1×10^−5 M) for 7 days, and the expression of PTHrP receptor, PPARγ, ADRP, calponin, and cSMA was determined by Western analysis and immunohistochemistry. Simultaneously, fibroblast function was characterized by measuring their capacity to take up triglycerides. Some experiments were performed in the presence of a specific PPARγ antagonist, GW9662. Medium containing fresh chemicals was added daily, and at the end of the experimental period the cells were processed as needed.
For Western blotting, cells were lysed using an extraction buffer [10 mM tris (hydroxymethyl) aminomethane (Tris, pH 7.5), 0.25 M sucrose, 1 mM EDTA, 5 mM benzamidine, 2 mM phenylmethylsulfonyl fluoride, and 10 (j.tg/ml each of pepstatin A, aprotinin, and leupeptin], and centrifuged at 140 g for 10 min (4° C.). Equal amounts of the protein (25 μg) from the supernatant were dissolved in electrophoresis sample buffer and were subjected to sodium dodecyl sulfate-polyacrylamide (4%-12% gradient) gel electrophoresis (SDS-PAGE) followed by electrophoretic transfer to a nitrocellulose memane. The nonspecific binding of antibody was blocked by washing with Tris-buffered saline (TBS) containing 0.1% Tween 20 (TBST) and 5% milk for 1 h. The blot was then subjected to two brief washes with TBST plus 0.5% Tween 20, incubated in TBST plus 0.1% Tween 20 and the specific primary antibodies (PPARγ 1:2000, Alexis Biochemicals, San Diego, Calif.; cSMA 1:50,000, Sigma, St. Louis, Mo.: ADRP 1:3000) overnight at 4° C. Blots were then washed in TBST plus 0.1% Tween 20 and then incubated for 1 h in secondary antibody, washed, and developed with a chemiluminescent substrate [enhanced chemiluminescence (ECL); Amersham, Arlington Heights, Ill.] following the manufacturer's protocol. The densities of the specific protein bands were quantified using a scanning densitometer (Eagle Eye II still video system, Stratagene, La Jolla, Calif.).

[4] = test system: WI38 cells; experiment: Triglyceride uptake assay ([3H]triolein) in WI38 cells; type: cell-based, human; conditions: concomitant treatment; RGZ 1×10^−5 M, PTHrP 5×10^−7 M, DBcAMP 1×10^−4 M; nicotine 1×10^−9 M, 7 days
Description: (§1) The human embryonic cell line WI38 was obtained from American Type Culture Collection (Rockville, Md.). Cells were grown in MEM plus 10% FBS at 37° C. in six-well plates, four-well slides, and 60- and 100-mm culture dishes as needed.
The method used to quantitate triglyceride uptake by fetal rat lung fibroblasts has been described previously (Torday et al. (1995) Biochim Biophys Acta 1254: 198-206). Briefly, culture medium was replaced with DMEM containing 20% adult rat serum mixed with [3H]triolein (5 μCi/ml). The cells were incubated at 37° C. in 5% CO2+balance air for 4 h. At the termination of the incubation, the medium was decanted, the cells were rinsed twice with 1 ml of ice-cold MEM, and the cells were removed from the culture plate after a 5- to 10-min incubation with 2 ml of a 0.05% trypsin solution. An aliquot of the cell suspension was taken for protein assay (Bradford (1976) Anal Biochem 72: 248-254), and the remaining cell suspension was extracted for neutral lipid content.

[5] = test system: WI38 cells; experiment: Western blot of lipogenic and myogenic marker proteins in WI38 cells (nicotine with or without lipogenic pathway agonists); type: cell-based, human; conditions: PTHrP 5×10^−7 M, DBcAMP 1×10^−4 M, RGZ 1×10^−5 M
Description: as §1
Western blotting was performed with modifications of methods described previously (Ayad and Wong (1998) Crit. Care Med 26: 1277-1282). […] Equal amounts of the protein (25 μg) from the supernatant were dissolved in electrophoresis sample buffer and were subjected to SDS-PAGE (4-12% gradient) followed by electrophoretic transfer to a nitrocellulose membrane. Nonspecific binding of antibody was blocked by washing with Tris-buffered saline (TBS) containing 5% milk for 1 h. The blot was then subjected to two brief washes with TBS plus 0.5% Tween 20, incubated in TBS plus 0.1% Tween 20 and the specific primary antibodies (PPAR 1:2,000, Alexis Biochemicals, San Diego, Calif.; -SMA 1:50,000, Sigma; ADRP 1:3,000, a kind gift from Dr. Constantine Londos, National Institute of Diabetes and Digestive and Kidney Diseases) overnight at 4° C. Blots were then washed in TBS plus 0.1% Tween 20 and then incubated for 1 h in secondary antibody, washed, and developed with a chemiluminescent substrate (ECL; Amersham, Arlington Heights, Ill.) following the manufacturer's protocol.

Molecule | reversal of nicotine-induced decreases in ADRP and lipid droplet staining and increase in αSMA staining [1] | block of nicotine-induced decrease in triolein uptake [2] | reversal of nicotine-induced decrease in PTHrP receptor expression [3] | reversal of nicotine-induced decrease in PPARγ expression [3] | reversal of nicotine-induced increase in αSMA expression [3] | reversal of nicotine-induced changes in expression of PTHrP receptor, PPARγ, ADRP, αSMA and calponin [3] | prevention of nicotine-induced decrease in triglyceride uptake [4] | prevention of nicotine-induced decreases in PTHrP receptor and PPAR and increase in α-SMA protein expression [5]
CCCC(=O)Nc1ncnc2c1ncn2[C@@H]1O[C@@H]2COP(=O)(O)O[C@H]2[C@H]1OC(=O)CCC [DBcAMP, dibutyryl cAMP] | reversed | at least partially blocked | reversed | did not reach statistical significance | reversed | almost completely reversed | effectively prevented | completely prevented
PTHrP-(1-34) |  | at least partially blocked | reversed | reversed | reversed | almost completely reversed | effectively prevented | completely prevented
